Data reported in article PMC3187749, “Discovery of Diverse Small Molecule Chemotypes with Cell-Based PKD1 Inhibitory Activity” (PLoS ONE, 2011).

Tests used:
Assay type in all cases: biochemical
recombinant human PKD1 = target: T1, recombinant human PKD1 (Homo sapiens, UniProt Q15139); experiment: In vitro radiometric PKD1 kinase assay; conditions: radiometric PKD1 kinase assay; mean ± range or SD of 2–4 independent experiments; read-out: In vitro PKD1 IC50
T1 construct: His; purchased Millipore (Billerica, MA)
T1 sequence (Q15139 1-912): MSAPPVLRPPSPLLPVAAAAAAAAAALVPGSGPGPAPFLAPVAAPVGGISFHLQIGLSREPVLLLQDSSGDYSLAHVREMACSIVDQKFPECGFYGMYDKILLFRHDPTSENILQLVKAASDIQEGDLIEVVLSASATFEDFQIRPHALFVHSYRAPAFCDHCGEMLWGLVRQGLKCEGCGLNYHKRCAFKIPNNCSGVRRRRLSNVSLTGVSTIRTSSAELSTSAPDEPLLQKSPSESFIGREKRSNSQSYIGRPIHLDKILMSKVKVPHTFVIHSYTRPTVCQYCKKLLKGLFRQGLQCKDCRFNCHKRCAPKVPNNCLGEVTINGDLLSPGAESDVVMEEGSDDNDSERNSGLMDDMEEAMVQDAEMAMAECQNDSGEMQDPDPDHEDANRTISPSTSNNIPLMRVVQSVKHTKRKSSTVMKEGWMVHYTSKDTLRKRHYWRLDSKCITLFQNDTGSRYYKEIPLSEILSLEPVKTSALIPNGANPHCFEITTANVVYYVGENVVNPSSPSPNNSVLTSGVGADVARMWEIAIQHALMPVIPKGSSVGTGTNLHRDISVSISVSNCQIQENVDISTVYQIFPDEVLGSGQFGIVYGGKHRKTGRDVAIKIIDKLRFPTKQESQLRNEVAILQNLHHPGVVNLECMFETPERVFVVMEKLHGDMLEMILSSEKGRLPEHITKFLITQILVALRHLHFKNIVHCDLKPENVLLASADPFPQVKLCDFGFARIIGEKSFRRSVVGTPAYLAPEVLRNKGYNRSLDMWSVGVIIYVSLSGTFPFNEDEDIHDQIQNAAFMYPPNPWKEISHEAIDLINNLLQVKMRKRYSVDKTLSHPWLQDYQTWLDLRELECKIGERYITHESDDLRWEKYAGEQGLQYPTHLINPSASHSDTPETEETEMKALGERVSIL
Method: (§1) Kinase reactions were initiated with the addition of ATP (50 µM ATP, 1.0 µCi γ-^33P-ATP; Perkin Elmer, Boston, MA) and incubated for 20 min at 30°C. Twenty-five µL of the reaction was spotted onto Whatman P81 filter paper (Whatman Inc., Clifton, NJ). Filter papers were then washed three times in 0.5% phosphoric acid, air-dried, and counted using an LS6500 multi-purpose scintillation counter (Beckman Coulter, Fullerton, CA). IC50 determinations were performed using GraphPad Prism software 5.0. Radiometric PKD2 and PKD3 in vitro kinase assays were performed as previously described.

PKD2 = target: T2, PKD2 (Homo sapiens, UniProt Q9BZL6); experiment: Radiometric PKD2 in vitro kinase assay; conditions: preliminary in vitro data
T2 sequence (Q9BZL6 1-878): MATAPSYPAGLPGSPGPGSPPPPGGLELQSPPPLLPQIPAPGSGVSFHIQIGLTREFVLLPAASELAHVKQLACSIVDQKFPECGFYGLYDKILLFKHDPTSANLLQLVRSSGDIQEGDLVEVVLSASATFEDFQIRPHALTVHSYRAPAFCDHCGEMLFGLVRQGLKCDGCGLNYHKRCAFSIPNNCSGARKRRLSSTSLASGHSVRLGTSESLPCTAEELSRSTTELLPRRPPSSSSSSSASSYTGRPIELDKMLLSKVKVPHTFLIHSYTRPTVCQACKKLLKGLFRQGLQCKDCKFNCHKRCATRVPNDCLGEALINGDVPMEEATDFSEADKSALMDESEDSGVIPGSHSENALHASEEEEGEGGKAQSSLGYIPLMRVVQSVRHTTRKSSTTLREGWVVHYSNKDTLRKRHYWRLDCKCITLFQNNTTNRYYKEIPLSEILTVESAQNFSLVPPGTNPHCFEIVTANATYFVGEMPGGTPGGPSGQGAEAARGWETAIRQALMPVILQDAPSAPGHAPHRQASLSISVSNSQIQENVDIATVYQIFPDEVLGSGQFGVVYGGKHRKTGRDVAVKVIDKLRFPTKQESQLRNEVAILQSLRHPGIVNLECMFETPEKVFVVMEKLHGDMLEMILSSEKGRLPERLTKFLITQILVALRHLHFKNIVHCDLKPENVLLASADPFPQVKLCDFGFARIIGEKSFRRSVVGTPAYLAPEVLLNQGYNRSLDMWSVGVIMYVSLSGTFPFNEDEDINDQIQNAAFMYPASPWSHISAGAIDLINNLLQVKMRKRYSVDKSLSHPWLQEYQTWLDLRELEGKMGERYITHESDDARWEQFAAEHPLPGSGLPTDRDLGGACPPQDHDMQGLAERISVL
Method: as §1

PKD3 = target: T3, PKD3 (Homo sapiens, UniProt O94806); experiment: Radiometric PKD3 in vitro kinase assay; conditions: preliminary in vitro data
T3 sequence (O94806 1-890): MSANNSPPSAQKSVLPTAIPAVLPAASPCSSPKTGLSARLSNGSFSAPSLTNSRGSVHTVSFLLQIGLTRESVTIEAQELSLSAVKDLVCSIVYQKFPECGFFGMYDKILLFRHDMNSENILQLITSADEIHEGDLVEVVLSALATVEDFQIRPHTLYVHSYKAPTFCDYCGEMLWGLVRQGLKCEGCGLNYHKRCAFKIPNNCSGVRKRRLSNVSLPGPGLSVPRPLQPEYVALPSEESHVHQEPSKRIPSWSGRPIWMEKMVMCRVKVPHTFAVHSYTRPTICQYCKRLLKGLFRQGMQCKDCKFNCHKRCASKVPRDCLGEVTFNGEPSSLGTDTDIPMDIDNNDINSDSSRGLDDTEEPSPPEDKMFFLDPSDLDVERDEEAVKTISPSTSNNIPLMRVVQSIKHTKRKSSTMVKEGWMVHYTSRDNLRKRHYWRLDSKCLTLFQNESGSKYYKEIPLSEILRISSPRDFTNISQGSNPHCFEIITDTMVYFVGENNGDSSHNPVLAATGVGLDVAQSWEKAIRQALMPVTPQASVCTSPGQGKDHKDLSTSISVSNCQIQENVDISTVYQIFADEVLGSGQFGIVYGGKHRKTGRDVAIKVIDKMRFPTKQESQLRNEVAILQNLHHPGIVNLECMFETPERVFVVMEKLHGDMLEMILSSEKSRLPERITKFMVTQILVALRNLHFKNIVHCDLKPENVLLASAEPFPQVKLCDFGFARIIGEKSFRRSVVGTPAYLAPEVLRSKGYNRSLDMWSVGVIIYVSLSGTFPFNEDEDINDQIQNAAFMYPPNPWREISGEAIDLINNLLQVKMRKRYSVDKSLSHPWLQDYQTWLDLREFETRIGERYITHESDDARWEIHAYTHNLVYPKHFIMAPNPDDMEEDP
Method: as §1

**Q.** With `O=C(Nc1ccc(CN2CCOCC2)cc1)c1ccc(-c2cccc(Cl)c2)o1` [CID 2011756, 5-(3-chlorophenyl)-N-[4-(morpholin-4-ylmethyl)phenyl]furan-2-carboxamide] as the compound, how does the IC50 (recombinant human PKD1) read?
**A.** Its IC50 is 3.2 ± 0.1 µM.

**Q.** And the IC50 (PKD2)?
**A.** Its IC50 is 0.6 ± 0.1 µM.

**Q.** What about the IC50 (PKD3) of the same compound?
**A.** The IC50 was 0.7 ± 0.2 µM.
